Data published in patent US10479986B2, “Nucleic acid constructs and methods for labeling and detecting nucleosomal DNA modifications” (THE BROAD INSTITUTE, INC., priority 2016, dated 2019).

Assays:
[1] = tested on: H3K27me3 levels in K562 cells; assay: Western blot of H3K27me3 levels in treated K562 cells (acid extracted histones); type: cell-based, human; conditions: 48 hr treatment
Source text: (§1) FIG. 13 is a western blot showing H3K27ac and H3K27me3 levels in K562 cells following treatment with the p300 inhibitor C646 or the EZH2 inhibitor […] (compared to a DMSO control). The total H3 is shown as loading control.
Data are typically normalized based on read numbers (“reads per million” or RPM). This presents complications when comparing between samples. To address this shortcoming, exogenous spike-in controls or semisynthetic standards were recently introduced (Bonhoure et al., 2014; Grzybowski et al., 2015; Orlando et al., 2014). The methods disclosed herein were assessed to determine whether the consistency of pooled sample processing could allow the capture of global modification levels without spike-in controls. […] After sequencing, the number of reads for H3K27ac and H3K27me3 were normalized to the number of reads for total H3.
It is noted the methods disclosed herein are preferential to open regions, as these are more sensitive to MNase digestion. This is evident in the relatively higher proportion of H3 reads that align to euchromatic regions (2-fold enrichment; compare to 1.2-fold enrichment in conventional ChIP-seq). […] To test this, Western blots to quantify H3K27me3 levels were used in MNase digested chromatin from K562 cells treated with GSK126.

[2] = tested on: H3K27ac levels in K562 cells; assay: Multiplexed barcoded ChIP-seq (Mint-ChIP), H3K27ac reads normalized to total H3 reads; type: cell-based, human; conditions: 48 hours treatment
Source text: (§2) FIG. 12 is a schematic showing an example method for quantitatively normalizing sequencing data results, in accordance with certain example embodiments. The control or drug treated cells are indexed, pooled, and then split for parallel ChIP assays. The ratio between H3K27me3 reads and H3 reads is used to compare global H3K27me3 levels between sample and normalized corresponding profiles.
(§3) FIG. 14 is a set of bar graphs showing global modification levels inferred from Western blot (top) or in accordance with certain example embodiments (bottom). The respective methods were applied in parallel to the same sample of […] cells treated for 48 hours with the indicated inhibitors. The data are shown as a mean±SD of n=3 independent experiments (symbols indicate values from independent experiments).
(§4) First, procedures for simultaneously lysing and digesting chromatin from small numbers of K562 cells were modified. […]
(§5) Algorithms were developed to process Mint-ChIP seq results. First, the seq reads are de-multiplexed by index #2 to yield separate read files for each ChIP assay. Each of these read files is then further de-multiplexed by index #1 (T7-adapter barcode) to yield separate files for each sample. […] More than 90% of reads were successfully assigned to one of the T7-adapter barcodes (FIG. 5). […]

[3] = tested on: H3K27ac levels in K562 cells; assay: Western blot of H3K27ac levels in treated K562 cells; type: cell-based, human; conditions: 48 hr treatment, vs DMSO control
Source text: as §1
Data are typically normalized based on read numbers (“reads per million” or RPM). This presents complications when comparing between samples. To address this shortcoming, exogenous spike-in controls or semisynthetic standards were recently introduced (Bonhoure et al., 2014; Grzybowski et al., 2015; Orlando et al., 2014). The methods disclosed herein were assessed to determine whether the consistency of pooled sample processing could allow the capture of global modification levels without spike-in controls. To this end, an additional IP was included with antibody to total H3, which was used as a normalization factor for the modifications (FIG. 12). The approach for measuring global changes was tested using small molecule inhibitors. K562 cells were treated with the p300 inhibitor C646 or the EZH2 inhibitor GSK126 (Ferrari et al., 2013; McCabe et al., 2012a). Western blots confirmed that H3K27ac levels were reduced by the acetyltransferase inhibitor C646, […] (FIG. 13). […] After sequencing, the number of reads for H3K27ac and H3K27me3 were normalized to the number of reads for total H3.

[4] = tested on: H3K27me3 levels in K562 cells; assay: Western blot of H3K27me3 in MNase digested chromatin; type: cell-based, human; conditions: 48 hr of treatment
Source text: It is noted the methods disclosed herein are preferential to open regions, as these are more sensitive to MNase digestion. This is evident in the relatively higher proportion of H3 reads that align to euchromatic regions (2-fold enrichment; compare to 1.2-fold enrichment in conventional ChIP-seq). These ratios are small relative to enrichments in ChIP-seq peaks, which range from 5- to 100-fold. However, they could account for increased sensitivity to early changes in H3K27me3 if these were also preferential to euchromatin. To test this, Western blots to quantify H3K27me3 levels were used in MNase digested chromatin from K562 cells treated with GSK126.

[5] = tested on: H3K27me3 levels in K562 cells; assay: Multiplexed barcoded ChIP-seq (Mint-ChIP), H3K27me3 reads normalized to total H3 reads; type: cell-based, human; conditions: 48 hours treatment
Source text: as §2, §3, §4, §5

SKM-1 cells = assay: Viable cell counts following GSK126 treatment; type: cell-based; conditions: SKM-1, after 3 days
Procedure: (§6) FIG. 24 provides a set of bar plots depicting viable cell counts following 72 hour GSK126 treatment of Pfeiffer, SKM-1, and Toledo. The data are shown as mean±SD of technical triplicates×n=2 independent experiments (*p<0.05, **p<0.01, and ****p<0.0001).
(§7) The respective mutant lines were also treated with the EZH2 inhibitor GSK126, which reduced global H3K27me3 levels (Pfeiffer: 3.4-fold; SKM-1: 3.8-fold; and Toledo: 1.4-fold after 72 hr). Pfeiffer cells, which had the largest absolute decrease in H3K27me3, were the most sensitive to GSK126 treatment (Pfeiffer: 56±11% cell death after 3 days; SKM-1: 15±10%; and Toledo: 2±15%; FIG. 24) (McCabe et al., 2012a). H3K27me3 peaks were called in the naive and drug treated cell lines. Although treatment-associated changes in H3K27me3 are masked by conventional normalization, these changes are readily evident using the quantitative normalization inherent to the methods disclosed herein (FIG. 23). Thus, the methods disclosed herein can quantify differences in global chromatin landscapes of cancer cells representing different genotypes or drug treatments.

Pfeiffer cells = assay: Viable cell counts following GSK126 treatment; type: cell-based; conditions: after 3 days
Procedure: as §6, §7

Toledo cells = assay: Viable cell counts following GSK126 treatment; type: cell-based; conditions: after 3 days
Procedure: as §6, §7

[6] = tested on: H3K27me3 levels in SKM-1 cells; assay: Mint-ChIP global H3K27me3 levels (ratio to H3 reads) after GSK126; type: cell-based; conditions: SKM-1, after 72 hr
Procedure: (§8) FIG. 20 provides a set of heat maps comparing H3K27me3 (A) and H3K27ac (B) levels in different cell lines treated with GSK126, as quantified in accordance with certain example embodiments. The experiments were performed using two different MNase concentrations.
(§9) The methods disclosed herein were used to quantitatively compare H3K27me3 and H3K27ac landscapes in these three cell lines. First, the global modification levels based on the ratio of H3K27me3 (or H3K27ac) reads to H3 reads were quantified. H3K27me3 levels were 5.1-fold greater in Pfeiffer than the other cell lines, consistent with its EZH2 activating mutation (FIG. 20).
as §7

[7] = tested on: H3K27me3 levels in Pfeiffer cells; assay: as above; type: cell-based; conditions: after 72 hr
Procedure: as §8, §9, §7

[8] = tested on: H3K27me3 levels in Toledo cells; assay: as above; type: cell-based; conditions: after 72 hr
Procedure: as §8, §9, §7

[9] = tested on: H3K4me3 levels in K562 cells; assay: Western blot of H3K4me3 levels in treated K562 cells; type: cell-based, human; conditions: 96 hr treatment, vs DMSO
Procedure: FIG. 16 are Western blots showing increased H3K4me3 levels in K562 cells following treatment with the demethylase inhibitor KDM5-C70. The total H3 is shown as loading control and n=3 experiments are shown.
(§10) (Labelle et al., 2014). The chromatin of K562 cells treated with DMSO or KDM5-C70 for 96 hr were barcoded and pooled. H3K4me3 and total H3 were then assayed. After sequencing, normalization of the number of H3K4me3 reads to the number of H3 reads reflected global modification levels and was consistent between experiments and also with Western blot analysis (FIG. 16 and FIG. 17). […] This effect was obscured when the data were subjected to conventional RPM normalization (FIG. 18).

H3K4me3 in K562 cells = assay: Multiplexed barcoded ChIP-seq (Mint-ChIP), H3K4me3 profiles with quantitative normalization to total H3; type: cell-based, human; conditions: 96 hr treatment, vs DMSO
Source text: FIG. 17 is a set of graphs showing global H3K4me3 levels inferred in accordance with certain example embodiments. The data are shown as ±SD of four replicates n=3 experiments are shown.
FIG. 18 is a graph showing H3K4me3 profiles scaled by conventional or quantitative normalization.
FIG. 19 provides a composite plot depicting average H3K4me3 in K562 cells treated with DMSO or KDM5-C70 (A) with 10 kb regions surrounding the centers of 36,875 peaks that are shown; a bar blot showing the fraction of peaks within size windows (B); and a Venn diagram showing the number of peaks detected in K562 cells treated with DMSO or KDM5-70 (C). The data were generated in accordance with certain example embodiments.
as §10

| SMILES | H3K27me3 levels (Western blot) [1] | ratio between H3K27ac reads and total H3 reads [2] | H3K27ac levels (Western blot) [3] | H3K27me3 levels (Western blot, MNase digested chromatin) [4] | H3K27me3 levels (H3K27me3 reads normalized to total H3 reads) [5] | cell death (SKM-1 cells) [%] | cell death (Pfeiffer cells) [%] | cell death (Toledo cells) [%] | reduction of global H3K27me3 levels [6] [fold] | reduction of global H3K27me3 levels [7] [fold] | reduction of global H3K27me3 levels [8] [fold] | H3K4me3 levels (Western blot) [9] | H3K4me3 coverage, domains and peaks (H3K4me3 in K562 cells) | H3K4me3 peak intensity (tracks scaled by inferred global levels) (H3K4me3 in K562 cells; quantitative normalization) |
| --- | --- | --- | --- | --- | --- | --- | --- | --- | --- | --- | --- | --- | --- | --- |
| CC1=NN(c2ccc(C(=O)O)cc2)C(=O)/C1=C\c1ccc(-c2cc(C)c(C)cc2[N+](=O)[O-])o1 [C646] | did not detect significant changes | decreased | reduced |  |  |  |  |  |  |  |  |  |  |  |
| CC[C@H](C)n1cc(C)c2c(C(=O)NCc3c(C)cc(C)[nH]c3=O)cc(-c3ccc(N4CCNCC4)nc3)cc21 [GSK126] | did not detect significant changes | increased | increased | Consistent reductions | consistent reduction | 15±10 | 56±11 | 2±15 | 3.8 | 3.4 | 1.4 |  |  |  |
| CCOC(=O)c1ccnc(CNCC(=O)N(CC)CCN(C)C)c1 [KDM5-C70] |  |  |  |  |  |  |  |  |  |  |  | increased | increases H3K4me3 coverage and widens existing domains, while also generating new H3K4me3 peaks | increased peak intensity |
